Laboratory results taken from publication PMC7351026, “Serum Half-Lives for Short- and Long-Chain Perfluoroalkyl Acids after Ceasing Exposure from Drinking Water Contaminated by Firefighting Foam” (Environmental Health Perspectives, 2020).

Legend:
[1] = Individual serum elimination rate and half-life (linear regression per employee); conditions: for Elimination rate / HL (half-life): individual estimate;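 for HL (half-life): half-life in years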
Method in brief: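 Log-transformed serum PFAS concentrations regressed on days since clean bottled water supply, per employee, assuming one-compartment first-order elimination. Individual k taken as −β (negative slope); half-life as ln2/k for each PFAS. No half-life calculated when β was positive.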

[2] = PFAS levels in serum samples of airport employees (LC/MS/MS)
Method in brief: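 Serum from airport employees, drawn after contaminated drinking-water exposure ended, up to five monthly rounds, all reanalyzed in one batch. 25 μL serum precipitated with acetonitrile/methanol plus labeled internal standards; LC/MS/MS on BEH C18 with ammonium acetate/methanol gradient, calibrants prepared in FBS.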

[3] = 1st sampling (September 2018), count 17
[4] = 2nd sampling (October 2018), count 17
[5] = 3rd sampling (November, 2018), count 17
[6] = 4th sampling (December 2018), count 16
[7] = 5th sampling (January 2019), count 16
[8] = first serum samples, all 26 airport employees
[9] = median of first serum samples, all 26 airport employees

Q: For `O=C(O)C(F)(F)C(F)(F)C(F)(F)C(F)(F)C(F)(F)F` [PFHxA, perfluorohexanoic acid], which “Individuals without decrement in serum concentration (no individual estimated half-life)” value ([1]; 5-month follow-up, 17 employees) is on record?
A: Its value is 53%.

Q: And the Elimination rate ([1]; subject 1, 5 samples)?
A: The Elimination rate was 0.2 yearly.

Q: What about the “HL (half-life)” value ([1]; subject 1, 5 samples) of the same molecule?
A: The value was 4.1 year.

Q: And the Elimination rate ([1]; subject 2, 5 samples)?
A: The Elimination rate was −0.1 yearly.

Q: And the Elimination rate ([1]; subject 3, 5 samples)?
A: The Elimination rate was 1.6 yearly.

Q: What about the “HL (half-life)” value ([1]; subject 3, 5 samples) of the same molecule?
A: The value was 0.4 year.

Q: And the Elimination rate ([1]; subject 4, 5 samples)?
A: The Elimination rate was −0.6 yearly.

Q: What about the Elimination rate ([1]; subject 5, 5 samples) of the same molecule?
A: Its Elimination rate is −1.7 yearly.

Q: And the Elimination rate ([1]; subject 6, 4 samples)?
A: Its Elimination rate is −1.6 yearly.

Q: What about the Elimination rate ([1]; subject 7, 5 samples) of the same molecule?
A: The Elimination rate was 1.5 yearly.

Q: What about the “HL (half-life)” value ([1]; subject 7, 5 samples) of the same molecule?
A: Its value is 0.5 year.

Q: And the Elimination rate ([1]; subject 8, 5 samples)?
A: Its Elimination rate is −0.7 yearly.

Q: What about the Elimination rate ([1]; subject 9, 5 samples) of the same molecule?
A: The Elimination rate was −0.2 yearly.

Q: What about the Elimination rate ([1]; subject 10, 5 samples) of the same molecule?
A: The Elimination rate was 0.4 yearly.

Q: And the “HL (half-life)” value ([1]; subject 10, 5 samples)?
A: The value was 1.9 year.

Q: And the Elimination rate ([1]; subject 11, 5 samples)?
A: The Elimination rate was 2.8 yearly.

Q: And the “HL (half-life)” value ([1]; subject 11, 5 samples)?
A: The value was 0.2 year.

Q: What about the Elimination rate ([1]; subject 12, 5 samples) of the same molecule?
A: The Elimination rate was −0.3 yearly.

Q: What about the Elimination rate ([1]; subject 13, 5 samples) of the same molecule?
A: Its Elimination rate is −0.7 yearly.

Q: What about the Elimination rate ([1]; subject 14, 4 samples) of the same molecule?
A: Its Elimination rate is −0.5 yearly.

Q: And the Elimination rate ([1]; subject 15, 5 samples)?
A: Its Elimination rate is 2.7 yearly.

Q: What about the “HL (half-life)” value ([1]; subject 15, 5 samples) of the same molecule?
A: Its value is 0.3 year.

Q: And the Elimination rate ([1]; subject 16, 5 samples)?
A: Its Elimination rate is 1.1 yearly.

Q: What about the “HL (half-life)” value ([1]; subject 16, 5 samples) of the same molecule?
A: Its value is 0.6 year.

Q: What about the Elimination rate ([1]; subject 17, 5 samples) of the same molecule?
A: Its Elimination rate is 2.5 yearly.

Q: What about the “HL (half-life)” value ([1]; subject 17, 5 samples) of the same molecule?
A: Its value is 0.3 year.

Q: What about the “Serum PFAS level, 25 percentile” value [2, 3] of the same molecule?
A: Its value is 0.24.

Q: What about the “Serum PFAS level, 75 percentile” value [2, 3] of the same molecule?
A: Its value is 0.48.

Q: And the “Serum PFAS level, Max” value [2, 3]?
A: Its value is 0.92.

Q: And the “Serum PFAS level, Median” value [2, 3]?
A: The value was 0.37.

Q: What about the “Serum PFAS level, Min” value [2, 3] of the same molecule?
A: The value was 0.16.

Q: What about the “Serum PFAS level, 25 percentile” value [2, 4] of the same molecule?
A: The value was 0.26.

Q: What about the “Serum PFAS level, 75 percentile” value [2, 4] of the same molecule?
A: Its value is 0.51.

Q: And the “Serum PFAS level, Max” value [2, 4]?
A: The value was 1.2.

Q: What about the “Serum PFAS level, Median” value [2, 4] of the same molecule?
A: Its value is 0.31.

Q: What about the “Serum PFAS level, Min” value [2, 4] of the same molecule?
A: The value was 0.14.

Q: What about the “Serum PFAS level, 25 percentile” value [2, 5] of the same molecule?
A: Its value is 0.27.

Q: And the “Serum PFAS level, 75 percentile” value [2, 5]?
A: Its value is 0.56.

Q: And the “Serum PFAS level, Max” value [2, 5]?
A: Its value is 1.4.

Q: What about the “Serum PFAS level, Median” value [2, 5] of the same molecule?
A: Its value is 0.34.

Q: And the “Serum PFAS level, Min” value [2, 5]?
A: The value was 0.13.

Q: What about the “Serum PFAS level, 25 percentile” value [2, 6] of the same molecule?
A: Its value is 0.22.

Q: And the “Serum PFAS level, 75 percentile” value [2, 6]?
A: The value was 0.46.

Q: And the “Serum PFAS level, Max” value [2, 6]?
A: The value was 0.87.

Q: And the “Serum PFAS level, Median” value [2, 6]?
A: The value was 0.30.

Q: What about the “Serum PFAS level, Min” value [2, 6] of the same molecule?
A: Its value is 0.08.

Q: What about the “Serum PFAS level, 25 percentile” value [2, 7] of the same molecule?
A: The value was 0.21.

Q: What about the “Serum PFAS level, 75 percentile” value [2, 7] of the same molecule?
A: The value was 0.52.

Q: What about the “Serum PFAS level, Max” value [2, 7] of the same molecule?
A: Its value is 1.2.

Q: What about the “Serum PFAS level, Median” value [2, 7] of the same molecule?
A: Its value is 0.33.

Q: And the “Serum PFAS level, Min” value [2, 7]?
A: Its value is 0.11.

Q: What about the “Serum level in the first samples, median (range)” value ([2]; all 26 airport employees) of the same molecule?
A: Its value is 0.38 (0.16–1.1) ng/mL.

Q: And the “PFAS in first serum sample, median (range)” value ([2]; employees participated in first blood sampling and repeated blood and urine sampling, N=17)?
A: Its value is 0.37 (0.16–0.92) ng/mL.

Q: And the “PFAS in first serum sample, median (range)” value ([2]; employees participated in first blood sampling only, N=9, 11-14 d after end of exposure)?
A: Its value is 0.38 (0.23–1.1) ng/mL.

Q: And the “Initial serum PFAS level, max” value ([2]; females (N=7))?
A: Its value is 0.54 ng/mL.

Q: And the “Initial serum PFAS level, median” value ([2]; females (N=7))?
A: The value was 0.24 ng/mL.

Q: What about the “Initial serum PFAS level, min” value ([2]; females (N=7)) of the same molecule?
A: The value was 0.19 ng/mL.

Q: What about the “Relative composition of PFAS in serum, molar concentration basis” value [2, 8] of the same molecule?
A: The value was 0.4%.

Q: What about the “Relative composition of PFAS in serum, weight basis” value [2, 8] of the same molecule?
A: The value was 0.3%.

Q: And the “Initial serum PFAS level, Max” value ([2]; males (N=19))?
A: Its value is 1.1 ng/mL.

Q: And the “Initial serum PFAS level, Min” value ([2]; males (N=19))?
A: The value was 0.16 ng/mL.

Q: What about the “Initial serum PFAS level, median” value ([2]; males (N=19)) of the same molecule?
A: The value was 0.42 ng/mL.

Q: What about the “Serum concentration, molar basis” value [2, 9] of the same molecule?
A: The value was 0.0012.

Q: And the “Serum concentration, weight basis” value [2, 9]?
A: The value was 0.38.
